According to patent US20260297070A1, “CYCLIC [COMPOUND LEFT OUT] WRN INHIBITORS” (Nimbus Wadjet, Inc., priority 2023, published 2026):

Target: T1, human Werner helicase (WRN-BV08, Uniprot Q14191, amino acids 517-1235 with L1074F point mutation) (Homo sapiens, UniProt Q14191, L1074F)
T1 construct: Uniprot Q14191, amino acids 517-1235 with L1074F point mutation; TEV-cleavable 8×His (C, cleaved yes); made in house; host or cells: Sf9 insect cells (baculovirus)
Assay: WRN (BV08) ADP-Glo Assay
Format: biochemical
Settings: 0.15 nM WRN, 5 μM ATP, 0.1 nM DNA duplex, 15 min preincubation, 60 min at 25° C., pH 7.5, 1% DMSO; read-out: ADP-Glo_hWRN_IC50
Procedure, shortened: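 Percent inhibition was normalised to DMSO (max) and 20 μM NSC-617145 (min) controls from ADP-Glo luminescence, and IC50 values came from a four-parameter fit. The reaction ran 60 min at 25 °C with 0.15 nM WRN, 5 μM ATP and 0.1 nM duplex DNA.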

T1 sequence (Q14191 with tags, fused parts or gaps L1074F limits assumed): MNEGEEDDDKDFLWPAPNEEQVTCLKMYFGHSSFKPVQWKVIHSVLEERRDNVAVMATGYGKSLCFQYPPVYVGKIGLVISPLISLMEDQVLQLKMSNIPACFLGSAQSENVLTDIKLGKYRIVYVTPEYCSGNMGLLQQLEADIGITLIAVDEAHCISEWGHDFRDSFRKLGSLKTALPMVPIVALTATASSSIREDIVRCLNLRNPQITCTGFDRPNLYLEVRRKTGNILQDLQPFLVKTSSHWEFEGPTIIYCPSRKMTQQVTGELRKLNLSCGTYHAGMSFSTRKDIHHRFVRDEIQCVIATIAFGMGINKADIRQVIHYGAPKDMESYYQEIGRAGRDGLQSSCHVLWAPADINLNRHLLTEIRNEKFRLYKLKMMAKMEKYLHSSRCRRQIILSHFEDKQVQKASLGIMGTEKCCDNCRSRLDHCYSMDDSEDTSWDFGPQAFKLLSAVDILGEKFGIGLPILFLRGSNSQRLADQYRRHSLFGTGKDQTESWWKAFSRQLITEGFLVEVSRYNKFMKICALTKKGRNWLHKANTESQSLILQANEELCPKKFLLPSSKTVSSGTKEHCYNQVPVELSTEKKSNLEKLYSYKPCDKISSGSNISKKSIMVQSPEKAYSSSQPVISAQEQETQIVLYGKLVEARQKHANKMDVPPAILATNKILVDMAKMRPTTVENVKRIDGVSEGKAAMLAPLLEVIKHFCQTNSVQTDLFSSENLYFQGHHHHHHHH

Row | IC50 [µM] | SMILES
1 | 0.5 to 5 | C#CCCCC(=O)N1CCN(C(=O)c2ccc(CN(C(=O)Cc3ccc(-n4cccc4C)cc3F)C3C=CS(=O)(=O)C3)cc2)CC1 (stereo not drawn) [I-182, N-(1,1-dioxo-2,3-dihydro-1lambda6-thiophen-3-yl)-2-[2-fluoro-4-(2-methyl-1H-pyrrol-1-yl)phenyl]-N-({4-[4-(hex-5-ynoyl)piperazine-1-carbonyl]phenyl}methyl)acetamide]
2 | > 50 | O=C(CC12CC(c3ccccc3)(C1)C2)N(Cc1ccncc1)C1C=CS(=O)(=O)C1 (stereo not drawn) [I-439, N-(1,1-dioxo-2,3-dihydro-1lambda6-thiophen-3-yl)-2-{3-phenylbicyclo[1.1.1]pentan-1-yl}-N-[(pyridin-4-yl)methyl]acetamide]
3 | < 0.5 | CC(C)(O)c1cc(CN(C(=O)C(OCCC(F)F)c2ccc(-c3ccc(F)c(F)c3)cc2F)[C@@H]2C=CS(=O)(=O)C2)ccn1 (single isomer, unassigned) [I-812]
4 | > 50 | O=C(C(C1CC1)n1cc(-c2ccccc2)cn1)N(Cc1ccncc1)C1C=CS(=O)(=O)C1 (stereo not drawn) [I-435, 2-cyclopropyl-N-(1,1-dioxo-2,3-dihydro-1lambda6-thiophen-3-yl)-2-(4-phenyl-1H-pyrazol-1-yl)-N-[(pyridin-4-yl)methyl]acetamide]
5 | 5 to 10 | CN(C)C(=O)C(C(=O)N(Cc1ccnc(C(C)(C)O)c1)C1C=CS(=O)(=O)C1)c1ccc(-c2ccc(F)cc2)cc1 (single isomer, unassigned) [I-271, (2R**)-N-[(3R*)-1,1-dioxo-2,3-dihydro-1lambda6-thiophen-3-yl]-2-{4′-fluoro-[1,1′-biphenyl]-4-yl}-N-{[2-(2-hydroxypropan-2-yl)pyridin-4-yl]methyl}-N′,N′-dimethylpropanediamide]
6 | 10 to 50 | C[Si](C)(C)c1ccc(CC(=O)N(Cc2ccncc2)C2C=CS(=O)(=O)C2)cc1 (stereo not drawn) [I-587, N-(1,1-dioxo-2,3-dihydro-1lambda6-thiophen-3-yl)-N-[(pyridin-4-yl)methyl]-2-[4-(trimethylsilyl)phenyl]acetamide]
7 | 0.5 to 5 | O=C(Cn1cc(-c2ccc(F)c(F)c2)cn1)N(Cc1ccnc(N2CCOCC2)c1)C1C=CS(=O)(=O)C1 (stereo not drawn) [I-759, 2-[4-(3,4-difluorophenyl)-1H-pyrazol-1-yl]-N-(1,1-dioxo-2,3-dihydro-1lambda6-thiophen-3-yl)-N-{[2-(morpholin-4-yl)pyridin-4-yl]methyl}acetamide]
8 | 0.5 to 5 | COc1cc(CN(C(=O)C(OCC#N)c2ccc(-c3ccc(F)c(F)c3)cc2F)[C@@H]2C=CS(=O)(=O)C2)ccn1 (single isomer, unassigned) [I-686, (2R*)-2-(cyanomethoxy)-N-[(3R)-1,1-dioxo-2,3-dihydro-1lambda6-thiophen-3-yl]-N-[(2-methoxypyridin-4-yl)methyl]-2-{3,3′,4′-trifluoro-[1,1′-biphenyl]-4-yl}acetamide]
9 | > 50 | Cn1nc(-c2ccccc2)cc1CC(=O)N(Cc1ccncc1)C1C=CS(=O)(=O)C1 (stereo not drawn) [I-609, N-(1,1-dioxo-2,3-dihydro-1lambda6-thiophen-3-yl)-2-(1-methyl-3-phenyl-1H-pyrazol-5-yl)-N-[(pyridin-4-yl)methyl]acetamide]
10 | 10 to 50 | O=C(Cc1ccc(C(F)F)cc1)N(Cc1ccncc1)C1C=CS(=O)(=O)C1 (stereo not drawn) [I-317, 2-[4-(difluoromethyl)phenyl]-N-(1,1-dioxo-2,3-dihydro-1lambda6-thiophen-3-yl)-N-[(pyridin-4-yl)methyl]acetamide]
11 | < 0.5 | CC(C)(O)c1cc(CN(C(=O)Cn2ncc(-c3cc(F)c(F)c(F)c3)c2Cl)C2C=CS(=O)(=O)C2)ccn1 (single isomer, unassigned) [I-773]
12 | < 0.5 | CC(C)(O)c1cc(CN(C(=O)Cc2ccc(S(F)(F)(F)(F)F)cc2)C2C=CS(=O)(=O)C2)ccn1 (stereo not drawn) [I-39, N-(1,1-dioxo-2,3-dihydro-1lambda6-thiophen-3-yl)-N-{[2-(2-hydroxypropan-2-yl)pyridin-4-yl]methyl}-2-[4-(pentafluoro-lambda6-sulfanyl)phenyl]acetamide]
